According to US20240158446A1, “CYCLIC COMPOUND HAVING SELECTIVE INHIBITORY ACTION ON KRAS OVER HRAS AND NRAS” (CHUGAI SEIYAKU KABUSHIKI KAISHA, priority 2021, published 2024):

Tests used:
[1] = molecular target: GDP-bound HRAS wild-type protein (Homo sapiens, UniProt P01112); assay: Binding to HRAS by surface plasmon resonance (SPR), Single Cycle Kinetics; conditions: SPR, GDP-bound HRAS wild-type protein vs GDP-bound KRAS wild-type protein
[2] = molecular target: GDP-bound KRAS wild-type protein (Homo sapiens, UniProt P01116); assay: Binding to KRAS by surface plasmon resonance (SPR), Single Cycle Kinetics; conditions: SPR Single Cycle Kinetics, GDP-bound KRAS wild-type protein, 1:1 binding model; read-out: KRAS KD
Sequence of GDP-bound KRAS wild-type protein (P01116 whole entry): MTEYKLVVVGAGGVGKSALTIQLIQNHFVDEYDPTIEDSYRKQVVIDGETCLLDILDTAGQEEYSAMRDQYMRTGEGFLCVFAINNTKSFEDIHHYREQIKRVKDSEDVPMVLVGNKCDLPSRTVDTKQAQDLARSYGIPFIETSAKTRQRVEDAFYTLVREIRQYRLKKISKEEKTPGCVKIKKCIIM

[3] = molecular target: GDP-bound NRAS wild-type protein (Homo sapiens, UniProt P01111); assay: Binding to NRAS by surface plasmon resonance (SPR), Single Cycle Kinetics; conditions: SPR, GDP-bound NRAS wild-type protein vs GDP-bound KRAS wild-type protein
Sequence of GDP-bound NRAS wild-type protein (P01111 whole entry): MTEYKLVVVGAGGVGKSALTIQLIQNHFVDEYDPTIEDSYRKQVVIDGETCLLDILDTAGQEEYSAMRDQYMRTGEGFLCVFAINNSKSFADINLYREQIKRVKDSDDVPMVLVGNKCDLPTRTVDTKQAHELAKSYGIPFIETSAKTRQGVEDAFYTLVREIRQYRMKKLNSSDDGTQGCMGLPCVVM

Sequence of GDP-bound HRAS wild-type protein (P01112 whole entry): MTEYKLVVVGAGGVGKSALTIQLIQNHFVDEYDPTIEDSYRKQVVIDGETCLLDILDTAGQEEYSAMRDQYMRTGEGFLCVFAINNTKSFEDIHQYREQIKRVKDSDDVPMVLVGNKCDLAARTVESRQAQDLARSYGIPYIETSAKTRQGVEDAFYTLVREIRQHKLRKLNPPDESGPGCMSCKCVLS

| SMILES | Kd [2] | HRAS/KRAS (ratio of KD value with respect to HRAS to KD value with respect to KRAS) [1] | NRAS/KRAS (ratio of KD value with respect to NRAS to KD value with respect to KRAS) [3] |
| --- | --- | --- | --- |
| CC[C@H](C)[C@@H]1NC(=O)[C@H](CC(C)C)N(C)C(=O)C[C@@H](C(=O)N2CCOCC2)N(CC)C(=O)[C@H](C2CCCC2)N(C)C(=O)C2(CCCC2)NC(=O)[C@@H]2CCCN2C(=O)[C@H](CCc2cc(F)c(C(F)(F)F)c(F)c2)NC(=O)CN(C)C(=O)[C@H](Cc2ccc(C(F)(F)F)cc2)N2CCCCC[C@@H](C2=O)N(C)C(=O)CN(C)C1=O [PP0477] | 11 nM | A (a compound having 10 or more and less than 20 is denoted as A) | A (a compound having 10 or more and less than 20 is denoted as A) |
| CC[C@H](C)[C@@H]1NC(=O)[C@H](CC(C)C)N(C)C(=O)C[C@@H](C(=O)N2CCOCC2)NC(=O)[C@H](C2CCCC2)N(C)C(=O)C2(CCCC2)NC(=O)[C@@H]2CCCN2C(=O)[C@H](CCc2cc(F)c(C(F)(F)F)c(F)c2)NC(=O)CN(C)C(=O)[C@H](Cc2ccc(C(F)(F)F)cc2)N2CCCCC[C@@H](C2=O)N(C)C(=O)CN(C)C1=O [PP0479] | 29 nM | B (a compound having 3 or more and less than 10 is denoted as B) | B (a compound having 3 or more and less than 10 is denoted as B) |
| CC[C@H](C)[C@@H]1NC(=O)[C@H](CC(C)C)N(C)C(=O)C[C@@H](C(=O)N2CCOCC2)N(C)C(=O)[C@H](C2CCCC2)N(C)C(=O)C2(CCCC2)NC(=O)[C@@H]2CCCN2C(=O)[C@H](CCc2cc(F)c(C(F)(F)F)c(F)c2)NC(=O)CN(C)C(=O)[C@H](Cc2ccc(C(F)(F)F)cc2)N2CCCCC[C@@H](C2=O)N(C)C(=O)[C@H](C)NC1=O [PP0481] | 850 nM | B (a compound having 3 or more and less than 10 is denoted as B) | B (a compound having 3 or more and less than 10 is denoted as B) |
| CC[C@H](C)[C@@H]1NC(=O)[C@H](CC(C)C)N(C)C(=O)C[C@@H](C(=O)N2CCOCC2)N(C)C(=O)[C@H](C2CCCC2)N(C)C(=O)C2(CCCC2)NC(=O)[C@@H]2CCCN2C(=O)[C@H](CCc2cc(F)c(C(F)(F)F)c(F)c2)NC(=O)CN(C)C(=O)[C@H](Cc2ccc(C(F)(F)F)cc2)N2CCCCC[C@@H](C2=O)N(C)C(=O)CN(CC)C1=O [PP0483] | 34 nM | B (a compound having 3 or more and less than 10 is denoted as B) | B (a compound having 3 or more and less than 10 is denoted as B) |
| CC[C@H](C)[C@@H]1NC(=O)[C@H](CC(C)C)N(C)C(=O)C[C@@H](C(=O)N2CCOCC2)N(C)C(=O)[C@H](C2CCCC2)N(C)C(=O)C2(CCCC2)NC(=O)[C@@H]2CCCN2C(=O)[C@H](CCc2cc(F)c(C(F)(F)F)c(F)c2)NC(=O)CN(C)C(=O)[C@H](Cc2ccc(C(F)(F)F)cc2)N2CCCCC[C@@H](C2=O)N(C)C(=O)[C@@H]2CCN2C1=O [PP0484] | 3.2 nM | B (a compound having 3 or more and less than 10 is denoted as B) | A (a compound having 10 or more and less than 20 is denoted as A) |
| CC[C@H](C)[C@@H]1NC(=O)[C@H](CC(C)C)N(C)C(=O)C[C@@H](C(=O)N2CCOCC2)N(C)C(=O)[C@H](C2CCCC2)N(C)C(=O)C2(CCCC2)NC(=O)[C@@H]2CCCN2C(=O)[C@H](CCc2cc(F)c(C(F)(F)F)c(F)c2)NC(=O)CN(C)C(=O)[C@H](Cc2ccc(C(F)(F)F)cc2)N2CCCCC[C@@H](C2=O)N(C)C(=O)[C@@H]2CCCN2C1=O [PP0485] | 28 nM | B (a compound having 3 or more and less than 10 is denoted as B) | A (a compound having 10 or more and less than 20 is denoted as A) |
| CC[C@H](C)[C@@H]1NC(=O)[C@H](C)N(C)C(=O)C[C@@H](C(=O)N2CCOCC2)N(C)C(=O)[C@H](C2CCCC2)N(C)C(=O)C2(CCCC2)NC(=O)[C@@H]2CCCN2C(=O)[C@H](CCc2cc(F)c(C(F)(F)F)c(F)c2)NC(=O)CN(C)C(=O)[C@H](Cc2ccc(C(F)(F)F)cc2)N2CCCCC[C@@H](C2=O)N(C)C(=O)CN(C)C1=O [PP0487] | 1.7 nM | B (a compound having 3 or more and less than 10 is denoted as B) | B (a compound having 3 or more and less than 10 is denoted as B) |
| CC[C@H](C)[C@@H]1NC(=O)[C@H](CC)N(C)C(=O)C[C@@H](C(=O)N2CCOCC2)N(C)C(=O)[C@H](C2CCCC2)N(C)C(=O)C2(CCCC2)NC(=O)[C@@H]2CCCN2C(=O)[C@H](CCc2cc(F)c(C(F)(F)F)c(F)c2)NC(=O)CN(C)C(=O)[C@H](Cc2ccc(C(F)(F)F)cc2)N2CCCCC[C@@H](C2=O)N(C)C(=O)CN(C)C1=O [PP0488] | 2.8 nM | B (a compound having 3 or more and less than 10 is denoted as B) | A (a compound having 10 or more and less than 20 is denoted as A) |

Continued, in another order:

| Kd [2] | SMILES | HRAS/KRAS (ratio of KD value with respect to HRAS to KD value with respect to KRAS) [1] | NRAS/KRAS (ratio of KD value with respect to NRAS to KD value with respect to KRAS) [3] |
| --- | --- | --- | --- |
| 2.4 nM | CC[C@H](C)[C@@H]1NC(=O)[C@H](CC(C)C)N(C)C(=O)C[C@@H](C(=O)N2CCOCC2)N(C)C(=O)[C@H](C2CCCC2)N(C)C(=O)C2(CCCC2)NC(=O)[C@@H]2CCCN2C(=O)[C@H](CCc2cc(F)c(C(F)(F)F)c(F)c2)NC(=O)CN(C)C(=O)[C@H](Cc2ccc(C(F)(F)F)cc2)N2CCCCC[C@@H](C2=O)N(C)C(=O)CN(C)C1=O [PP0490] | B (a compound having 3 or more and less than 10 is denoted as B) | B (a compound having 3 or more and less than 10 is denoted as B) |
| 1.1 nM | CC[C@H](C)[C@@H]1NC(=O)[C@H](CC(C)C)N(C)C(=O)C[C@@H](C(=O)N2CCOCC2)N(C)C(=O)[C@H](C2CCCC2)N(C)C(=O)C2(CCCC2)NC(=O)[C@@H]2CC(F)(F)CN2C(=O)[C@H](CCc2cc(F)c(C(F)(F)F)c(F)c2)NC(=O)CN(C)C(=O)[C@H](Cc2ccc(C(F)(F)F)cc2)N2CCCCC[C@@H](C2=O)N(C)C(=O)CN(C)C1=O [PP0491] | B (a compound having 3 or more and less than 10 is denoted as B) | B (a compound having 3 or more and less than 10 is denoted as B) |
| 1.2 nM | CCO[C@@H]1C[C@H]2C(=O)NC3(CCCC3)C(=O)N(C)[C@@H](C3CCCC3)C(=O)N(C)[C@H](C(=O)N3CCOCC3)CC(=O)N(C)[C@@H](CC(C)C)C(=O)N[C@@H]([C@@H](C)CC)C(=O)N(C)CC(=O)N(C)[C@H]3CCCCCN(C3=O)[C@@H](Cc3ccc(C(F)(F)F)cc3)C(=O)N(C)CC(=O)N[C@@H](CCc3cc(F)c(C(F)(F)F)c(F)c3)C(=O)N2C1 [PP0492] | B (a compound having 3 or more and less than 10 is denoted as B) | B (a compound having 3 or more and less than 10 is denoted as B) |
| 2 nM | CC[C@H](C)[C@@H]1NC(=O)[C@H](CC(C)C)N(C)C(=O)C[C@@H](C(=O)N2CCOCC2)N(C)C(=O)[C@H](C2CCCC2)N(C)C(=O)C2(CCCC2)NC(=O)[C@@H]2CC(=O)CN2C(=O)[C@H](CCc2cc(F)c(C(F)(F)F)c(F)c2)NC(=O)CN(C)C(=O)[C@H](Cc2ccc(C(F)(F)F)cc2)N2CCCCC[C@@H](C2=O)N(C)C(=O)CN(C)C1=O [PP0493] | B (a compound having 3 or more and less than 10 is denoted as B) | B (a compound having 3 or more and less than 10 is denoted as B) |
| 5.1 nM | CC[C@H](C)[C@@H]1NC(=O)[C@H](CC(C)C)N(C)C(=O)C[C@@H](C(=O)N2CCOCC2)N(C)C(=O)[C@H](C2CCCC2)N(C)C(=O)C2(CCCC2)NC(=O)[C@@H]2C[C@H](OC)CN2C(=O)[C@H](CCc2cc(F)c(C(F)(F)F)c(F)c2)NC(=O)CN(C)C(=O)[C@H](Cc2ccc(C(F)(F)F)cc2)N2CCCCC[C@@H](C2=O)N(C)C(=O)CN(C)C1=O [PP0495] | B (a compound having 3 or more and less than 10 is denoted as B) | A (a compound having 10 or more and less than 20 is denoted as A) |
| 4.8 nM | CC[C@H](C)[C@@H]1NC(=O)[C@H](CC(C)C)N(C)C(=O)C[C@@H](C(=O)N2CCOCC2)N(C)C(=O)[C@H](C2CCCC2)N(C)C(=O)C2(CC2)NC(=O)[C@@H]2CCCN2C(=O)[C@H](CCc2cc(F)c(C(F)(F)F)c(F)c2)NC(=O)CN(C)C(=O)[C@H](Cc2ccc(C(F)(F)F)cc2)N2CCCCC[C@@H](C2=O)N(C)C(=O)CN(C)C1=O [PP0496] | B (a compound having 3 or more and less than 10 is denoted as B) | B (a compound having 3 or more and less than 10 is denoted as B) |
| 0.85 nM | CC[C@H](C)[C@@H]1NC(=O)[C@H](CC(C)C)N(C)C(=O)C[C@@H](C(=O)N2CCOCC2)N(C)C(=O)[C@H](C2CCCC2)N(C)C(=O)C2(CCC2)NC(=O)[C@@H]2CCCN2C(=O)[C@H](CCc2cc(F)c(C(F)(F)F)c(F)c2)NC(=O)CN(C)C(=O)[C@H](Cc2ccc(C(F)(F)F)cc2)N2CCCCC[C@@H](C2=O)N(C)C(=O)CN(C)C1=O [PP0497] | B (a compound having 3 or more and less than 10 is denoted as B) | B (a compound having 3 or more and less than 10 is denoted as B) |
